Reference: patent US4348410A, “Cyclohexane carboxylic acid derivatives” (Nippon Chemiphar Co., Ltd., priority 1979, dated 1982)
Where two headings read alike, the source gives them in different places.

Columns and labels:
Shay ulcers = Shay ulcers (pylorus ligation); format: in vivo, Male Sprague-Dawley strain rats; conditions: for Ulcer Grade 0 (number of rats): 0=no lesion; for Ulcer Grade 1 (number of rats): 1=hemorrhagic suffusion; for Ulcer Grade 2 (number of rats): 2=1-5 small ulcers (<3 mm); for Ulcer Grade 3 (number of rats): 3=many small ulcers (more than 5) or 1 ulcer of marked size; for Ulcer Grade 4 (number of rats): 4=many ulcers of marked size; for Ulcer Grade 5 (number of rats): 5=perforated ulcer
Description: The rats were sacrificed 18 hours later by an overdose of ether and the stomach removed. The stomach was incised along the greater curvature and the surface area of each lesion in forestomach was measured by the naked eye. […] 4=many ulcers of marked size 5=perforated ulcer The test drugs were given intraperitoneally, immediately after pylorus ligation.

Acute toxicity = conditions: mouse, in vivo, po, 7 days observation
Description: […]. The test drugs were given orally using gastric sonde. […] The LD50 value was calculated by the Probit method (C.I. Bliss).

urokinase = urokinase (Homo sapiens, UniProt P00749); assay: Inhibitory effects on urokinase (hydrolysis of N-acetylglycyl lysine methyl ester); format: biochemical; conditions: 37° C., 10 minutes; concentration not given
Description: The compounds of the formula (I) have excellent inhibitory effects on protease. The inhibitory effects were determined by the following methods: Inhibitory effects of the compounds on urokinase were determined according to the method described by A. J. Joeson et al (Throm. […]. 21, 259-272 (1969)). In particular, inhibitory effects of the compounds on hydrolysis of N-acetylglycyl lysine methyl ester by urokinase were determined (incubated at 37° C. for 10 minutes).

SMILES: N=C(N)NC[C@H]1CC[C@H](C(=O)Oc2ccccc2C(=O)OCc2ccccc2)CC1 [Compound 1]
- Ulcer Grade 0 (number of rats) (Shay ulcers; 75 mg/kg i.p.): 8
- Ulcer Grade 1 (number of rats) (Shay ulcers; 75 mg/kg i.p.): 0
- Ulcer Grade 2 (number of rats) (Shay ulcers; 75 mg/kg i.p.): 2
- Ulcer Grade 3 (number of rats) (Shay ulcers; 75 mg/kg i.p.): 0
- Ulcer Grade 4 (number of rats) (Shay ulcers; 75 mg/kg i.p.): 0
- Ulcer Grade 5 (number of rats) (Shay ulcers; 75 mg/kg i.p.): 0
- Ulcer Grade 0 (number of rats) (Shay ulcers; 150 mg/kg i.p.): 10
- Ulcer Grade 1 (number of rats) (Shay ulcers; 150 mg/kg i.p.): 0
- Ulcer Grade 2 (number of rats) (Shay ulcers; 150 mg/kg i.p.): 0
- Ulcer Grade 3 (number of rats) (Shay ulcers; 150 mg/kg i.p.): 0
- Ulcer Grade 4 (number of rats) (Shay ulcers; 150 mg/kg i.p.): 0
- Ulcer Grade 5 (number of rats) (Shay ulcers; 150 mg/kg i.p.): 0
- Ulcer Grade 0 (number of rats) (Shay ulcers; 300 mg/kg i.p.): 7
- Ulcer Grade 1 (number of rats) (Shay ulcers; 300 mg/kg i.p.): 0
- Ulcer Grade 2 (number of rats) (Shay ulcers; 300 mg/kg i.p.): 0
- Ulcer Grade 3 (number of rats) (Shay ulcers; 300 mg/kg i.p.): 0
- Ulcer Grade 4 (number of rats) (Shay ulcers; 300 mg/kg i.p.): 0
- Ulcer Grade 5 (number of rats) (Shay ulcers; 300 mg/kg i.p.): 0
- LD50 at 168 h (Acute toxicity; female mice, read-out: LD50 Female): > 8000 mg/kg
- LD50 at 168 h (Acute toxicity; male mice, read-out: LD50 male): 7600 mg/kg
- Inhibition (%) Urokinase (urokinase): 32%
